Results reported in patent US9840513B2 (AbbVie S.à.r.l., priority 2015, dated 2017).

Biological target: T1, F508delCFTR cell surface expression in CFBE41o-F508delCFTR-HRP cells (Homo sapiens, UniProt P13569, DEL508-508)
T1 construct: fused on or other part: Horseradish peroxidase (HRP) reporter inserted in the fourth exofacial (extracellular) loop of CFTR; expression is doxycycline-inducible
Experiment: Cell Surface Expression-Horse Radish Peroxidase (CSE-HRP) Assay
Assay type: cell-based
Conditions: for EC50: CFBE41o-F508delCFTR-HRP cells, 18-24 hours at 33° C., 8-point curve, highest concentration 20 μM; for Maximum % activity (%): maximum at any tested concentration, normalized to on-plate positive control (3 μM)
Outline: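 Correctors incubated 18-24 h at 33 °C on doxycycline-induced (0.5 μg/mL, 72 h) CFBE41o-F508delCFTR-HRP cells, 3-fold series from 20 μM. After DPBS washes, luminol luminescence read; activity expressed relative to DMSO and a 3 μM positive control, EC50 fitted from triplicate plates.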

T1 sequence (P13569 with tags, fused parts or gaps DEL508-508 limits assumed): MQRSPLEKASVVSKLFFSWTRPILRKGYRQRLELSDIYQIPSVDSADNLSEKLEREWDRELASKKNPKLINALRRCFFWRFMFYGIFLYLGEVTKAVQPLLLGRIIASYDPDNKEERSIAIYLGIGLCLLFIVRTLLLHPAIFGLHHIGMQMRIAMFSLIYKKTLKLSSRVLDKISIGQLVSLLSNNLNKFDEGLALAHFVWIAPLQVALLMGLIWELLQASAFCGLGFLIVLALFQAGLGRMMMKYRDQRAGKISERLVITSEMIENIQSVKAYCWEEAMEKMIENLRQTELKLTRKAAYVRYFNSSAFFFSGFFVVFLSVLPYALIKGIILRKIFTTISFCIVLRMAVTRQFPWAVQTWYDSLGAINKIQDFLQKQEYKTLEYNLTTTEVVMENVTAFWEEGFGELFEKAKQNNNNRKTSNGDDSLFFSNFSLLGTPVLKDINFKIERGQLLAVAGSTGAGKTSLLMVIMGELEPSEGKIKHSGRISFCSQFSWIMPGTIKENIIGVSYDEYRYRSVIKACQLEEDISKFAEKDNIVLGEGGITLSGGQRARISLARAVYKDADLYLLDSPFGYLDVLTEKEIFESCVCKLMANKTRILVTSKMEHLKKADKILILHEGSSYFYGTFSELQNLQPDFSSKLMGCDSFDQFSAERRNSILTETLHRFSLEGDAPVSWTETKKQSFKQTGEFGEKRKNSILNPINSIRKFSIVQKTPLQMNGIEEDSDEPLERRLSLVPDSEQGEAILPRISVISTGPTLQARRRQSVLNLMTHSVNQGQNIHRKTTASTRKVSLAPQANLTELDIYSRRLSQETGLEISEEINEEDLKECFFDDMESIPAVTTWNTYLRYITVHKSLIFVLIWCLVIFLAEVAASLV
T1 sequence (P13569 919-1480 limits assumed, stated change not applied): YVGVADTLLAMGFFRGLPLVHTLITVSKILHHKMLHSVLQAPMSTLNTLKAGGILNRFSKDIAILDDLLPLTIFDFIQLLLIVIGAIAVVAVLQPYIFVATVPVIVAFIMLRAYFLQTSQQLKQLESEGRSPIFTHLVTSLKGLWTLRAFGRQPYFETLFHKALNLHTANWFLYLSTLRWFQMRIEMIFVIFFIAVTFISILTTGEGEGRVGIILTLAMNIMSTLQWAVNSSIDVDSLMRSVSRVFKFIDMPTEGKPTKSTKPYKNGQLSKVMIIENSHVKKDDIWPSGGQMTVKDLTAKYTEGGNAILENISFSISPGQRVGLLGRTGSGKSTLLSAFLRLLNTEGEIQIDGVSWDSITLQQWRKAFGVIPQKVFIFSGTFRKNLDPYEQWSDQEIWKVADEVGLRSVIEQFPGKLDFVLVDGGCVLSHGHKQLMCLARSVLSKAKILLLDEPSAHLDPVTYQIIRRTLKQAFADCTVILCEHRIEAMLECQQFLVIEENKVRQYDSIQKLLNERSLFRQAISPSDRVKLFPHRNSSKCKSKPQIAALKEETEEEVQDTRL

SMILES | EC50 [nM] | Maximum % activity (%)
COc1ccc2c(c1)O[C@@H](c1ccc(C(=O)N(CCO)CCO)cn1)C[C@H]2NC(=O)[C@@]1(C)COc2cc3c(cc21)OC(F)(F)O3 [Example 236, 6-[(2R,4R)-4-{[(7R)-2,2-difluoro-7-methyl-6,7-dihydro-2H-furo[2,3-f][1,3]benzodioxole-7-carbonyl]amino}-7-methoxy-3,4-dihydro-2H-1-benzopyran-2-yl]-N,N-bis(2-hydroxyethyl)pyridine-3-carboxamide] | 70 | 131
COc1ccc2c(c1)O[C@@H](c1ccc(C(=O)N3CCOC(CO)C3)cn1)C[C@H]2NC(=O)[C@@]1(C)COc2cc3c(cc21)OC(F)(F)O3 (stereo partly drawn) [Example 237, (7R)-2,2-difluoro-N-[(2R,4R)-2-{5-[2-(hydroxymethyl)morpholine-4-carbonyl]pyridin-2-yl}-7-methoxy-3,4-dihydro-2H-1-benzopyran-4-yl]-7-methyl-6,7-dihydro-2H-furo[2,3-f][1,3]benzodioxole-7-carboxamide] | 50 | 121
COc1ccc2c(c1)O[C@@H](c1ccc(C(=O)N3CCC(O)(CCO)C3)cn1)C[C@H]2NC(=O)[C@@]1(C)COc2cc3c(cc21)OC(F)(F)O3 (stereo partly drawn) [Example 238, (7R)-2,2-difluoro-N-[(2R,4R)-2-{5-[3-hydroxy-3-(2-hydroxyethyl)pyrrolidine-1-carbonyl]pyridin-2-yl}-7-methoxy-3,4-dihydro-2H-1-benzopyran-4-yl]-7-methyl-6,7-dihydro-2H-furo[2,3-f][1,3]benzodioxole-7-carboxamide] | 80 | 113
COc1ccc2c(c1)O[C@@H](c1ccc(C(=O)N3CC(O)(CCO)C3)cn1)C[C@H]2NC(=O)[C@@]1(C)COc2cc3c(cc21)OC(F)(F)O3 [Example 239, (7R)-2,2-difluoro-N-[(2R,4R)-2-{5-[3-hydroxy-3-(2-hydroxyethyl)azetidine-1-carbonyl]pyridin-2-yl}-7-methoxy-3,4-dihydro-2H-1-benzopyran-4-yl]-7-methyl-6,7-dihydro-2H-furo[2,3-f][1,3]benzodioxole-7-carboxamide] | 40 | 111
COc1ccc2c(c1)O[C@@H](c1ccc(C(=O)N3CCOCC3CO)cn1)C[C@H]2NC(=O)[C@@]1(C)COc2cc3c(cc21)OC(F)(F)O3 (stereo partly drawn) [Example 240, (7R)-2,2-difluoro-N-[(2R,4R)-2-{5-[3-(hydroxymethyl)morpholine-4-carbonyl]pyridin-2-yl}-7-methoxy-3,4-dihydro-2H-1-benzopyran-4-yl]-7-methyl-6,7-dihydro-2H-furo[2,3-f][1,3]benzodioxole-7-carboxamide] | 60 | 132
COc1ccc2c(c1)O[C@@H](c1ccc(C(=O)NCC(C)O)cn1)C[C@H]2NC(=O)[C@@]1(C)COc2cc3c(cc21)OC(F)(F)O3 (stereo partly drawn) [Example 241, 6-[(2R,4R)-4-{[(7R)-2,2-difluoro-7-methyl-6,7-dihydro-2H-furo[2,3-f][1,3]benzodioxole-7-carbonyl]amino}-7-methoxy-3,4-dihydro-2H-1-benzopyran-2-yl]-N-(2-hydroxypropyl)pyridine-3-carboxamide] | 40 | 110
COc1ccc2c(c1)O[C@@H](c1ccc(C(=O)NC(C)CO)cn1)C[C@H]2NC(=O)[C@@]1(C)COc2cc3c(cc21)OC(F)(F)O3 (stereo partly drawn) [Example 242, 6-[(2R,4R)-4-{[(7R)-2,2-difluoro-7-methyl-6,7-dihydro-2H-furo[2,3-f][1,3]benzodioxole-7-carbonyl]amino}-7-methoxy-3,4-dihydro-2H-1-benzopyran-2-yl]-N-(1-hydroxypropan-2-yl)pyridine-3-carboxamide] | 40 | 116
COc1ccc2c(c1)O[C@@H](c1ccc(C(=O)NCCO)cn1)C[C@H]2NC(=O)[C@@]1(C)COc2cc3c(cc21)OC(F)(F)O3 [Example 244, 6-[(2R,4R)-4-{[(7R)-2,2-difluoro-7-methyl-6,7-dihydro-2H-furo[2,3-f][1,3]benzodioxole-7-carbonyl]amino}-7-methoxy-3,4-dihydro-2H-1-benzopyran-2-yl]-N-(2-hydroxyethyl)pyridine-3-carboxamide] | 30 | 114
COc1ccc2c(c1)O[C@@H](c1ccc(C(=O)NC[C@H]3C[C@H](O)C3)cn1)C[C@H]2NC(=O)[C@@]1(C)COc2cc3c(cc21)OC(F)(F)O3 [Example 245, 6-[(2R,4R)-4-{[(7R)-2,2-difluoro-7-methyl-6,7-dihydro-2H-furo[2,3-f][1,3]benzodioxole-7-carbonyl]amino}-7-methoxy-3,4-dihydro-2H-1-benzopyran-2-yl]-N-[(trans-3-hydroxycyclobutyl)methyl]pyridine-3-carboxamide] | 50 | 107
COCC(CO)NC(=O)c1ccc([C@H]2C[C@@H](NC(=O)[C@@]3(C)COc4cc5c(cc43)OC(F)(F)O5)c3ccc(OC)cc3O2)nc1 (stereo partly drawn) [Example 246, 6-[(2R,4R)-4-{[(7R)-2,2-difluoro-7-methyl-6,7-dihydro-2H-furo[2,3-f][1,3]benzodioxole-7-carbonyl]amino}-7-methoxy-3,4-dihydro-2H-1-benzopyran-2-yl]-N-(1-hydroxy-3-methoxypropan-2-yl)pyridine-3-carboxamide] | 80 | 125
CC1(C)OC[C@H](CN2CCC([C@H]3C[C@@H](NC(=O)[C@@]4(C)COc5cc6c(cc54)OC(F)(F)O6)c4ccc(OC(F)(F)F)cc4O3)CC2)O1 [Example 247, (7R)—N-[(2R,4R)-2-(1-{[(4S)-2,2-dimethyl-1,3-dioxolan-4-yl]methyl}piperidin-4-yl)-7-(trifluoromethoxy)-3,4-dihydro-2H-1-benzopyran-4-yl]-2,2-difluoro-7-methyl-6,7-dihydro-2H-furo[2,3-f][1,3]benzodioxole-7-carboxamide] | 1180 | 181
COc1ccc2c(c1)O[C@@H](c1ccc(C(=O)N3C[C@H](O)[C@@H](O)C3)cn1)C[C@H]2NC(=O)[C@@]1(C)COc2cc3c(cc21)OC(F)(F)O3 [Example 249, (7R)—N-[(2R,4R)-2-{5-[(3S,4S)-3,4-dihydroxypyrrolidine-1-carbonyl]pyridin-2-yl}-7-methoxy-3,4-dihydro-2H-1-benzopyran-4-yl]-2,2-difluoro-7-methyl-6,7-dihydro-2H-furo[2,3-f][1,3]benzodioxole-7-carboxamide] | 100 | 110
CCN(CCO)C(=O)[C@H]1CC[C@H]([C@H]2C[C@@H](NC(=O)[C@@]3(C)COc4cc5c(cc43)OC(F)(F)O5)c3ccc(OC(F)(F)F)cc3O2)CC1 [Example 253, (7R)—N-[(2R,4R)-2-{trans-4-[ethyl(2-hydroxyethyl)carbamoyl]cyclohexyl}-7-(trifluoromethoxy)-3,4-dihydro-2H-1-benzopyran-4-yl]-2,2-difluoro-7-methyl-6,7-dihydro-2H-furo[2,3-f][1,3]benzodioxole-7-carboxamide] | 60 | 150
